Patent US11364275B2, “Linear lipopeptide paenipeptins and methods of using the same” (priority 2017, dated 2022)
Where two headings read alike, the source gives them in different places. Where a SMILES comes first, the peptide text is derived from it. [ ]: non-standard residue; d: D form. The star is where a group is joined. ξ: configuration not given here. Thr(3ξ) = CC(O)[C@H](N)C(=O)O; Decanoyl = CCCCCCCCCC(=O)*; Heptanoyl = CCCCCCC(=O)*; Octanoyl = CCCCCCCC(=O)*; Orn = NCCC[C@H](N)C(=O)O; Dab = NCC[C@H](N)C(=O)O; ξDab = NCCC(N)C(=O)O; Bz = O=C(c1ccccc1)*

Key:
[1] = test system: Klebsiella pneumoniae ATCC 13883; assay: MIC of antibiotics with or without paenipeptin analogues (potentiation); assay type: cell-based; settings: K. pneumoniae ATCC 13883; for MIC of antibiotic at 0 μg/ml paenipeptin analogue: antibiotic alone; for Sensitization factor (rifampicin): MIC without / with 4 μg/mL paenipeptin
Text: (§1) Gram-negative bacteria, including Acinetobacter and Klebsiella, are intrinsically resistant to the hydrophobic antibiotic rifampicin.

[2] = test system: Acinetobacter baumannii ATCC 19606; assay: as above; assay type: cell-based; settings: A. baumannii ATCC 19606; for MIC of antibiotic at 0 μg/ml paenipeptin analogue: antibiotic alone; for Sensitization factor (rifampicin): MIC without / with 4 μg/mL paenipeptin
Text: as §1

rabbit red blood cells = assay: Hemolytic activity; assay type: cell-based; settings: for Hemolysis: relative to Triton X-100
Procedure: Hemolytic activity was evaluated using defibrinated rabbit blood in a 96-well plate as described previously. A nonionic surfactant Triton X-100, which is capable of lysing red blood cells (RBCs), was used at 0.1% as a positive control. Briefly, rabbit blood (Hardy Diagnostics, Santa Maria, Calif.) was diluted with phosphate buffered saline (PBS; pH 7.2) at a 1:19 ratio (v/v) and free hemoglobin was removed by washing RBCs and centrifugation four times at 1,000×g at 4° C. for 5 min. Aliquots (50 μL) of washed RBCs were incubated with 150 μL two-fold dilutions of paenipeptin analogues at final concentrations of 16-128 μg/mL at 37° C. for 30 min in a microtiter plate (NBS, Corning Inc.). After incubation, treated RBCs were gently mixed by repeated pipetting. Aliquots (20 μL) of the cell suspension were mixed with 200 μL PBS in a new 96-well plate and centrifuged at 2,204×g for 10 min. The supernatant was transferred to a new 96-well plate for absorbance measurement at 415 nm using a Cell Imaging Multimode Reader (Cytation 3, BioTek; Winooski, Vt.). The percent hemolysis observed after exposure to each paenipeptin analogue was calculated relative to Triton X-100.

[3] = test system: methicillin-resistant S. aureus ATCC 43300; assay type: cell-based, Staphylococcus aureus
Procedure: (§2) The minimum inhibitory concentration (MIC) of paenipeptin analogues was determined using the broth microdilution method (Wirker, M. A. Methods for Dilution Antimicrobial Susceptibility Tests for Bacteria that Grow Aerobically: Approved Standard M07-A8; Clinical and Laboratory Standards Institute, Wayne, Pa., 2009). Seven reference strains (Acinetobacter baumannii ATCC 19606, Escherichia coli ATCC 25922, Klebsiella pneumoniae ATCC 13883, Pseudomonas aeruginosa ATCC 27853, Enterococcus faecium ATCC 19434, Staphylococcus aureus ATCC 29213 and methicillin-resistant S. aureus ATCC 43300) were subjected to MIC testing.
(§3) Paenipeptin analogues were two-fold diluted in tryptic soy broth (TSB; Becton Dickinson) and mixed with an equal volume of bacterial suspensions in TSB containing approximately 1.5×10^5 colony-forming units (CFU)/mL in a clear UV-sterilized 96-well microtiter plate (NBS, Corning Inc., Corning, N.Y.). […] The microtiter plate was incubated at 37° C. for 18-20 h.

[4] = test system: Staphylococcus aureus ATCC 29213; assay type: cell-based
[5] = test system: Acinetobacter baumannii ATCC 19606; assay type: cell-based
Procedure: as §2, §3

[6] = test system: Klebsiella pneumoniae ATCC 13883; assay type: cell-based
[7] = test system: Enterococcus faecium ATCC 19434; assay type: cell-based
[8] = test system: Pseudomonas aeruginosa ATCC 27853; assay type: cell-based
[9] = test system: Escherichia coli ATCC 25922; assay type: cell-based
Procedure: as §2, §3

Structure (SMILES) | MIC of antibiotic at 0 μg/ml paenipeptin analogue [1] | MIC of antibiotic at 0 μg/ml paenipeptin analogue [2] | MIC ([3]; ATCC 43300) | MIC of rifampicin at 2 μg/mL of paenipeptin analogue [1] | MIC of rifampicin at 4 μg/mL of paenipeptin analogue [1] | MIC of rifampicin at 2 μg/mL of paenipeptin analogue [2] | MIC of rifampicin at 4 μg/mL of paenipeptin analogue [2] | MIC ([4]; ATCC 29213) | MIC ([5]; ATCC 19606) | MIC ([6]; ATCC 13883) | MIC ([7]; ATCC 19434) | MIC ([8]; ATCC 27853) | MIC ([9]; ATCC 25922) | Hemolysis (rabbit red blood cells; 16 μg/mL) | Hemolysis (rabbit red blood cells; 32 μg/mL) | Hemolysis (rabbit red blood cells; 64 μg/mL) | Hemolysis (rabbit red blood cells; 128 μg/mL) | Sensitization factor (rifampicin) [1] | Sensitization factor (rifampicin) [2] | further results
CCCCCCC(=O)N[C@@H](CCN)C(=O)N[C@H](C(=O)N[C@@H](CCN)C(=O)N[C@H](Cc1ccccc1)C(=O)N[C@@H](CC(C)C)C(=O)N[C@@H](CCN)C(=O)N[C@@H](C(=O)N[C@@H](CC(C)C)C(=O)N[C@@H](CO)C(N)=O)C(C)C)C(C)C [Analogue 2] (Heptanoyl-[Dab]V[Dab][dF]L[Dab][dV]LS-NH2) | – | – | >32 µg/mL | 0.0156 μg/ml | 0.0039 μg/ml | 0.125 μg/ml | 0.0313-0.0625 μg/ml | >32 µg/mL | >32 µg/mL | >32 µg/mL | >32 µg/mL | – | – | −0.17 ± 0.19% | 0.32 ± 0.74% | 0.79 ± 0.63% | 0.95 ± 0.45% | 4,096 | 256-512 | –
CCCCCCC(=O)N[C@@H](CCN)C(=O)N[C@H](C(=O)N[C@@H](CCN)C(=O)N[C@H](Cc1ccccc1)C(=O)N[C@@H](CC(C)C)C(=O)N[C@@H](CCN)C(=O)N[C@@H](C(=O)N[C@@H](CC(C)C)C(=O)N[C@@H](CO)C(N)=O)C(C)C)[C@@H](C)CC [Analogue 3] (Heptanoyl-[Dab]I[Dab][dF]L[Dab][dV]LS-NH2) | – | – | >32 µg/mL | 0.0039 μg/ml | <0.00098-0.00195 μg/ml | 0.0078 μg/ml | – | >32 µg/mL | >32 µg/mL | – | >32 µg/mL | – | – | 0.18 ± 0.54% | 0.78 ± 0.30% | 1.18 ± 0.68% | 1.77 ± 0.81% | – | 4,096 | hemolytic activity (in words) (rabbit red blood cells; 128 μg/mL): little hemolysis
CCCCCCC(=O)N[C@@H](CCN)C(=O)N[C@@H](Cc1ccccc1)C(=O)N[C@@H](CCN)C(=O)N[C@H](Cc1ccccc1)C(=O)N[C@@H](CC(C)C)C(=O)N[C@@H](CCN)C(=O)N[C@@H](C(=O)N[C@@H](CC(C)C)C(=O)N[C@@H](CO)C(N)=O)C(C)C [Analogue 4] (Heptanoyl-[Dab]F[Dab][dF]L[Dab][dV]LS-NH2) | – | – | – | – | – | – | – | ≥32 µg/mL | – | – | >32 µg/mL | 2 to 4 µg/mL | 1 to 4 µg/mL | 0.28 ± 1.11% | 0.49 ± 1.22% | 0.60 ± 1.35% | 1.28 ± 1.65% | – | – | –
CCCCCCCC(=O)N[C@@H](CCN)C(=O)NC(CCN)C(=O)N[C@@H](CCN)C(=O)N[C@H](Cc1ccccc1)C(=O)N[C@@H](CC(C)C)C(=O)N[C@@H](CCN)C(=O)N[C@@H](C(=O)N[C@@H](CC(C)C)C(=O)N[C@@H](CCN)C(N)=O)C(C)C (some centres unmarked) [Analogue 10] (Octanoyl-[Dab][ξDab][Dab][dF]L[Dab][dV]L[Dab]-NH2) | – | – | >32 µg/mL | 0.0625-0.125 μg/ml | 0.0625 μg/ml | – | 0.0313-0.0625 μg/ml | ≥32 µg/mL | >32 µg/mL | >32 µg/mL | >32 µg/mL | 16 to 32 µg/mL | >32 µg/mL | 0.37 ± 0.62% | 0.38 ± 0.62% | 0.41 ± 0.53% | 0.80 ± 0.40% | 256 | 256-512 | –
CCCCCCCC(=O)N[C@@H](CCCN)C(=O)N[C@H](C(=O)N[C@@H](CCCN)C(=O)N[C@H](Cc1ccccc1)C(=O)N[C@@H](CC(C)C)C(=O)N[C@@H](CCCN)C(=O)N[C@@H](C(=O)N[C@@H](CC(C)C)C(=O)N[C@@H](CO)C(N)=O)C(C)C)[C@@H](C)CC [Analogue 11] (Octanoyl-[Orn]I[Orn][dF]L[Orn][dV]LS-NH2) | – | – | – | – | 0.0078-0.0156 μg/ml | 0.0625 μg/ml | 0.0156-0.0313 μg/ml | >32 µg/mL | – | >32 µg/mL | >32 µg/mL | – | – | 0.86 ± 0.72% | 0.44 ± 0.30% | 0.69 ± 0.64% | 1.12 ± 0.47% | 1,024-2,048 | 512-1,024 | –
CC[C@H](C)[C@H](NC(=O)[C@H](CCN)NC(=O)c1ccccc1)C(=O)N[C@@H](CCN)C(=O)N[C@H](Cc1ccccc1)C(=O)N[C@@H](CC(C)C)C(=O)N[C@@H](CCN)C(=O)N[C@@H](C(=O)N[C@@H](CC(C)C)C(=O)N[C@@H](CO)C(N)=O)C(C)C [Analogue 14] (Bz-[Dab]I[Dab][dF]L[Dab][dV]LS-NH2) | – | – | – | 0.0078 μg/ml | 0.00195-0.0039 μg/ml | 0.03125 μg/ml | – | – | – | – | – | – | – | 0.22 ± 0.17% | 0.71 ± 0.82% | 1.14 ± 1.05% | 0.70 ± 0.34% | 4,096-8,192 | 2,048-4,096 | MIC ([3]; S. aureus ATCC 43300, TSB): >32 µg/mL; MIC ([8]; P. aeruginosa ATCC 27853, TSB): 8 to 32 µg/mL; MIC ([9]; E. coli ATCC 25922, TSB): 16 to 32 µg/mL; MIC ([4]; S. aureus ATCC 29213, TSB): >32 µg/mL; MIC ([5]; A. baumannii ATCC 19606, TSB): >32 µg/mL; MIC ([6]; K. pneumoniae ATCC 13883, TSB): >32 µg/mL; MIC ([7]; E. faecium ATCC 19434, TSB): >32 µg/mL
CN[C@H](CC(C)C)C(=O)N[C@H]1C(=O)N[C@@H](CC(N)=O)C(=O)N[C@H]2C(=O)N[C@H]3C(=O)N[C@H](C(=O)N[C@H](C(=O)O)c4cc(O)cc(O)c4-c4cc3ccc4O)[C@H](O)c3ccc(c(Cl)c3)Oc3cc2cc(c3O[C@@H]2O[C@H](CO)[C@@H](O)[C@H](O)[C@H]2O[C@H]2C[C@](C)(N)[C@H](O)[C@H](C)O2)Oc2ccc(cc2Cl)[C@H]1O [Vancomycin, vancomycin, reference compound] | >32 μg/ml | >32 μg/ml | – | – | – | – | – | – | – | – | – | – | – | – | – | – | – | – | – | –

More lines, main results first:

MIC of antibiotic at 0 μg/ml paenipeptin analogue [1] | MIC of antibiotic at 0 μg/ml paenipeptin analogue [2] | MIC ([3]; ATCC 43300) | MIC of rifampicin at 2 μg/mL of paenipeptin analogue [1] | MIC of rifampicin at 4 μg/mL of paenipeptin analogue [1] | MIC of rifampicin at 2 μg/mL of paenipeptin analogue [2] | MIC of rifampicin at 4 μg/mL of paenipeptin analogue [2] | MIC ([4]; ATCC 29213) | MIC ([5]; ATCC 19606) | MIC ([6]; ATCC 13883) | MIC ([7]; ATCC 19434) | MIC ([8]; ATCC 27853) | MIC ([9]; ATCC 25922) | Structure (SMILES) | Hemolysis (rabbit red blood cells; 16 μg/mL) | Hemolysis (rabbit red blood cells; 32 μg/mL) | Hemolysis (rabbit red blood cells; 64 μg/mL) | Hemolysis (rabbit red blood cells; 128 μg/mL) | Sensitization factor (rifampicin) [1] | Sensitization factor (rifampicin) [2] | further results
32 μg/ml | >32 μg/ml | – | – | – | – | – | – | – | – | – | – | – | CC1(C)S[C@@H]2[C@H](NC(=O)[C@H](N)c3ccccc3)C(=O)N2[C@H]1C(=O)O [Ampicillin, ampicillin, reference compound] | – | – | – | – | – | – | –
– | – | >32 µg/mL | >0.125 μg/ml | >2 μg/ml | >0.125 μg/ml | >0.125 μg/ml | >32 µg/mL | >32 µg/mL | >32 µg/mL | ≥32 µg/mL | >32 µg/mL | >32 µg/mL | CCCCCCCCCC(=O)N[C@@H](CCN)C(=O)N[C@H](C(=O)N[C@H](C(=O)N[C@H](CC(C)C)C(=O)N[C@@H](CC(C)C)C(=O)N[C@@H](CCN)C(=O)N[C@@H](C(=O)N[C@@H](CC(C)C)C(=O)N[C@@H](CO)C(N)=O)C(C)C)C(C)O)[C@@H](C)CC (stereo partly drawn) [Analogue 13] (Decanoyl-[Dab]I[Thr(3ξ)][dL]L[Dab][dV]LS-NH2) | 1.25 ± 0.71% | 5.06 ± 1.14% | 10.0 ± 1.03% | 24.9 ± 2.71% | – | – | –
>32 μg/ml | 32 μg/ml | – | – | – | – | – | – | – | – | – | – | – | CC[C@H]1OC(=O)[C@H](C)[C@@H](O[C@H]2C[C@@](C)(OC)[C@@H](O)[C@H](C)O2)[C@H](C)[C@@H](O[C@@H]2O[C@H](C)C[C@H](N(C)C)[C@H]2O)[C@](C)(O)C[C@@H](C)C(=O)[C@H](C)[C@@H](O)[C@]1(C)O [Erythromycin, erythromycin, reference compound] | – | – | – | – | – | – | –
